ChEMBL document CHEMBL1201862, “PubChem BioAssay data set” (2004)
Active and inactive are the calls of the source.

Key:
[1] = cAMP pathway inhibition in counterscreen cell line – TR-FRET cAMP detection, counter-screen for MC4R biased antagonist project, dose response (AID 602305); format: functional, cell-based;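 also: U2OS cells stimulated with forskolin near its EC80 as the cAMP inducer; potency is for inhibition of forskolin-stimulated cAMP signaling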
[2] = molecular target: Melanocortin receptor 4 (Homo sapiens, UniProt P32245); assay: inhibitors of MC4R cAMP signaling – cell-based, TR-FRET, biased antagonists, dose response (AID 602298); format: functional;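 also: antagonist potency against agonist-stimulated cAMP production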
[3] = molecular target: Neuropeptides B/W receptor type 1 (Homo sapiens, UniProt P48145); assay: human NPBW1 receptor blockade, IC50 – cell-based, fluorescence, dose response, set 5, late-stage follow-up (AID 588566); format: functional
[4] = molecular target: Melanin-concentrating hormone receptor 1 (Homo sapiens, UniProt Q99705); assay: Late-stage fluorescence-based counterscreen for antagonists of the G-protein coupled receptor 7 (GPR7): cell-based dose response assay to identify antagonists of the melanin-concentrating hormone receptor 1 (MCHR1) Set 5.; format: functional
[5] = Late-stage results from the probe development effort to identify antagonists of the G-protein coupled receptor 7 (GPR7): luminescence-based cell-based dose response counterscreen assay to determine cytotoxicity of antagonist compounds Set 3.; format: functional
[6] = Trypanosoma cruzi growth suppression in host cells – NIH3T3 host cells, beta-gal luminescence, confirmation (AID 2044); format: functional, cell-based;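 also: intracellular parasites grown in NIH/3T3 mouse fibroblasts as host cells; luminescent beta-galactosidase reporter signal from transgenic T. cruzi replicating inside host cells; inhibitors lower the luminescence signal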
[7] = microbe, parasite or virus in culture; format: functional; conditions: Mycobacterium tuberculosis
[8] = molecular target: T1, High affinity choline transporter 1 (Homo sapiens, UniProt Q9GZV3); assay: human choline transporter potentiators, potency – cell-based, 10-point CRC, membrane potential dye, dose response (AID 602376); format: functional
T1 sequence (Q9GZV3 whole entry): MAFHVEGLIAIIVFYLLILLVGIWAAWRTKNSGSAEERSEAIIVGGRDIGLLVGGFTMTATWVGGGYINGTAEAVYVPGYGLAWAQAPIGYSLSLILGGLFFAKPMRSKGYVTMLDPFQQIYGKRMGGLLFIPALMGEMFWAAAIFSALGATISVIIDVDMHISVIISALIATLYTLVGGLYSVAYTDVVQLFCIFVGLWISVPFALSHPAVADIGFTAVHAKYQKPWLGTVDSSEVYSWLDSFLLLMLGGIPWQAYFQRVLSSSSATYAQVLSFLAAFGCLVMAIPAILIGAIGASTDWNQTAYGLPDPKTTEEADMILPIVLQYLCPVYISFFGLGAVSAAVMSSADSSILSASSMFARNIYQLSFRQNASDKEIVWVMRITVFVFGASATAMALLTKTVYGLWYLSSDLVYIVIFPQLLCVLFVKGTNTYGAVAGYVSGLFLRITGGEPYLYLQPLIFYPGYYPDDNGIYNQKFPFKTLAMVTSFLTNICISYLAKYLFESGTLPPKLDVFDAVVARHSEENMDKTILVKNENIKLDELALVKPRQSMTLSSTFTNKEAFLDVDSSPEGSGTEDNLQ

[9] = NIH3T3 cell viability loss – ATP luminescence, mouse fibroblasts, counter-screen, dose response (AID 2010); format: functional, cell-based;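 also: cells exposed to compound for about 90 hours before reading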
[10] = molecular target: Protein kinase C gamma type (Homo sapiens, UniProt P05129); format: functional
[11] = molecular target: Protein kinase C zeta type (Homo sapiens, UniProt Q05513); format: functional;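 also: measured as one member of a broad kinase profiling panel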
[12] = molecular target: G protein-coupled receptor kinase 5 (Homo sapiens, UniProt P34947); assay: Navigating the Kinome. Panel member name: GPRK5; format: functional
[13] = molecular target: MAP kinase-activated protein kinase 3 (Homo sapiens, UniProt Q16644); format: functional;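 also: value comes from a kinome-wide profiling panel in which MAPKAPK3 is one of the panel members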
Sequence of MAP kinase-activated protein kinase 3 (Q16644 whole entry): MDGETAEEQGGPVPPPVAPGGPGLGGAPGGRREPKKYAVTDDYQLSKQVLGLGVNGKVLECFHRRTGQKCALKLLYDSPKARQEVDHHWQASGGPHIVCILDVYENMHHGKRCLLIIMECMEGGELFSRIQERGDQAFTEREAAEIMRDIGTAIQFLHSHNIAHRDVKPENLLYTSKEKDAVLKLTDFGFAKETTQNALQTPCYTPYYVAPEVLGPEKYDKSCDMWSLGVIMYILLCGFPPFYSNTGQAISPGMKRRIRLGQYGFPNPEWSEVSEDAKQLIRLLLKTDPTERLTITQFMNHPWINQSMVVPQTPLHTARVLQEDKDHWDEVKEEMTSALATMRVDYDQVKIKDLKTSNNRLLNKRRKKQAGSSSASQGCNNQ

Sequence of Neuropeptides B/W receptor type 1 (P48145 whole entry): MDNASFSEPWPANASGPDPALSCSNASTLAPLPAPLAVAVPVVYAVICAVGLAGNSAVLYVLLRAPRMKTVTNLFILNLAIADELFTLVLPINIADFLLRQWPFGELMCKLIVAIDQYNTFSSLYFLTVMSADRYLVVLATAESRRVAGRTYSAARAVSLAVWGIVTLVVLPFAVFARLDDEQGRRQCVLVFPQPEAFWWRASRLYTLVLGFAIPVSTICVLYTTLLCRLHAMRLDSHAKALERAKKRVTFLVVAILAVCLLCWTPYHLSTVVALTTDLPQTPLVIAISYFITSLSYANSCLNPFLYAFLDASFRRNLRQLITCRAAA
Sequence of Melanocortin receptor 4 (P32245 whole entry): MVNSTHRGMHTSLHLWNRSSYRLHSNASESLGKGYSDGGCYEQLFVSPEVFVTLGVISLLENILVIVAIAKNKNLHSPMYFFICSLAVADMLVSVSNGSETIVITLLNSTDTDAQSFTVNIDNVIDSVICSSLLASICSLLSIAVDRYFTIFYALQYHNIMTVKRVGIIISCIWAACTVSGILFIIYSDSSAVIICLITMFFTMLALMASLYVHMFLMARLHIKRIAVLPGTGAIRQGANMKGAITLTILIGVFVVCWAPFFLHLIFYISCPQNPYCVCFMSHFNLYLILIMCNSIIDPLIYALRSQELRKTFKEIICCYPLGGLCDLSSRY
Sequence of Protein kinase C zeta type (Q05513 whole entry): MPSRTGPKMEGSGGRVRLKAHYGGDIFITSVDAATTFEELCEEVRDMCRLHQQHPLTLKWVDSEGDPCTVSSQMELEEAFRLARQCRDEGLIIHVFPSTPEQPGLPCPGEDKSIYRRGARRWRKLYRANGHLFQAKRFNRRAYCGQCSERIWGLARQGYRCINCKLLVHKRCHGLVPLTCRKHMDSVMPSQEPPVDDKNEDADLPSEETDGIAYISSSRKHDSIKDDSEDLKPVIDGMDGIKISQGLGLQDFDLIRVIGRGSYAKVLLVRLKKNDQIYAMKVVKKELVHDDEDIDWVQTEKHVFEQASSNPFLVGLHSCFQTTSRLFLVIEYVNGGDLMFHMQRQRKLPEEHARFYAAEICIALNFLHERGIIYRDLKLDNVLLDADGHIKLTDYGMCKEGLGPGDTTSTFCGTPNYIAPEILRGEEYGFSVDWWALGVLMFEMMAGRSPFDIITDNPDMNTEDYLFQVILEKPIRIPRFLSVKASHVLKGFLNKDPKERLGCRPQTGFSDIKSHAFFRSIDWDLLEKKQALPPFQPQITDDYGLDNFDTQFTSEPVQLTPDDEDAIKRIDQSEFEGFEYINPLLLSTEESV
Sequence of G protein-coupled receptor kinase 5 (P34947 whole entry): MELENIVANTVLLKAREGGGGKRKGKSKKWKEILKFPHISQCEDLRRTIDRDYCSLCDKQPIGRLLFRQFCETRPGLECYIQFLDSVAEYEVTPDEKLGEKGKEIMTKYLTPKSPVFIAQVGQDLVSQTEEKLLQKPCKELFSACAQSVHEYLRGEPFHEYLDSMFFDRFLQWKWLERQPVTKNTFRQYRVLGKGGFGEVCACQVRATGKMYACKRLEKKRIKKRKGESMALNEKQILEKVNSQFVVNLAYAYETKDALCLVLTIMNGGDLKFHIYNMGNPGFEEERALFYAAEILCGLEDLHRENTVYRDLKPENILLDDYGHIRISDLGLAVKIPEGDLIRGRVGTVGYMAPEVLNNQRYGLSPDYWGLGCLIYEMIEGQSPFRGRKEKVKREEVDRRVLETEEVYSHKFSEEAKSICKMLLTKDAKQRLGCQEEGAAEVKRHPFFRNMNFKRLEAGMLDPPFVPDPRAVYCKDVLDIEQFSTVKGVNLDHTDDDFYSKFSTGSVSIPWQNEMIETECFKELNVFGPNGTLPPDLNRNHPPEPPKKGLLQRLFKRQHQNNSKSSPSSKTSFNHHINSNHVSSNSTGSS
Sequence of Melanin-concentrating hormone receptor 1 (Q99705 whole entry): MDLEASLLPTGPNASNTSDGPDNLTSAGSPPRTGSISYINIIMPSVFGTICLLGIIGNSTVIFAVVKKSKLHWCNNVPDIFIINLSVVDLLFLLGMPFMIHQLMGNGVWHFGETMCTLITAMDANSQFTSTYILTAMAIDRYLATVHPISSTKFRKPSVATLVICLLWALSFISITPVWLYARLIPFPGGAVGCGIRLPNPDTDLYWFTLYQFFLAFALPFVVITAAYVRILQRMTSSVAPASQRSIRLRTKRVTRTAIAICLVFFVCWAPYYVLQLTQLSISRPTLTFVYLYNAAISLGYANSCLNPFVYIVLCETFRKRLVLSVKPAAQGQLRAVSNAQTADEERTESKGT

## CC(=O)Oc1ccc2nc(-c3ccco3)oc(=O)c2c1
[1]
  IC50: > 64.6 µM (inactive)
[2]
  IC50: > 64.6 µM (inactive)

## CS(=O)(=O)c1ccc(Oc2c(Cl)cnn(Cc3cccc4ccccc34)c2=O)cc1
[3]
  IC50: 1.13 µM (active)
[4]
  IC50: 2.46 µM (active)

## COc1ccc(Oc2c(Cl)cnn(C3c4ccccc4-c4ccccc43)c2=O)cc1
[5]
  CC50: > 20 µM (inactive)

## Cc1ccc(-n2c(C)cc(/C=N/NC(N)=S)c2C)cc1
[6]
  EC50: 0.315 µM (active)
[7]
  CC50: > 40 µM (active)
[8]
  EC50: 9.06 µM (active)
[9]
  EC50: > 60 µM (inconclusive)

## CCN(CCO)CCCOc1ccc2c(Nc3cc(CC(=O)Nc4cccc(F)c4)[nH]n3)ncnc2c1 [DEFOSBARASERTIB]
[10]
  Ki: > 7.94 µM (inactive)
[11]
  Ki: > 7.94 µM (inactive)
[12]
  Ki: > 3.98 µM (inactive)
[13]
  Ki: > 10 µM (inactive)
